Measured values reported in patent US10543240B2, “Topical composition containing glycerin and yeast extract” (Johnson & Johnson Consumer Inc., priority 2016, dated 2020).

Test system: S. epidermis (ATCC 12228)
Experiment: Growth of S. epidermidis under aerobic conditions, time-to-detection (BacT/Alert 3D system)
Assay type: cell-based, Staphylococcus epidermidis
Details: S. epidermidis inoculated at 1000 CFU/mL in standard aerobic bottles; test material in PBS; average of three samples; PBS control = 100
From the text: The ability of four test materials to grow S. epidermis (ATCC 12228) under aerobic conditions was investigated. The materials were: 1) phosphate buffered saline buffer solution (PBS), 2) PBS containing 5% of an aqueous solution containing 0.13 weight percent of an extract of Pichia anomala grown on kiwi, 3) PBS containing 3% glycerol, and 4) PBS containing both 5% of an aqueous solution containing 0.13 weight percent of an extract of Pichia anomala grown on kiwi and 3% glycerol. The BacT/Alert 3D system (BioMerieux Inc.) was used to determine the time-to-detection (“TTD”) of S. epidermidis according to the manufacturer's instruction. S. epidermidis were inoculated at concentrations of 1000 colony-forming units (CFU)/mL into standard aerobic bottles (BioMerieux Inc.). The test materials were prepared in PBS and injected into the standard aerobic bottles at the indicated final concentration with the volume of 1 ml. Standard aerobic bottles inoculated with S. epidermidis only and 10 ml of PBS was used as control. Bottles were then inserted into the BacT/Alert 3D system until stationary growth phase. The TTD values were automatically calculated by the BacT/Alert 3D according to the growth algorism. Three samples were tested for each test material and the resulted were averaged. Relative Time-to-Detection (RTTD) was calculated as (TTD treatment-TTD control)/TTD control*100.

## OCC(O)CO [3% Glycerol, glycerol]
  RTTD (Relative Time-to-Detection): 92.56
